Laboratory results published in PMC11133798, “Vosoritide treatment for children with hypochondroplasia: a phase 2 trial” (eClinicalMedicine, 2024).

Tests used:
[1] = test system: children with hypochondroplasia; design: species or system human; conditions: in vivo
From the text: The study has 3 prespecified co-primary outcomes: 1. To evaluate the safety and tolerability of daily subcutaneous injections of vosoritide administered for 12 months in patients with selected genetic causes of short stature, 2. To evaluate the change from baseline in age-sex standardized annualized growth velocity after 12 months of daily SC injections of vosoritide in patients with selected genetic causes of short stature, and 3. To evaluate the change from baseline in age-sex standardized height SDS after 12 months of daily SC injections of vosoritide in patients with selected genetic causes of short stature. Annualized growth velocity was standardized using data from the First Zurich Longitudinal Study of Growth and Development[9] as it includes growth velocity data starting at age 2.5 years. Height SDS was calculated using the United States CDC growth charts.[8] Hypochondroplasia specific height SDS was calculated using recently published hypochondroplasia growth curves.[10] To measure these outcomes, the following 3 co-primary endpoints were specified: 1. The incidence of adverse events per participant, 2. The change from baseline in age-sex standardized annualized growth velocity after 12 months of treatment, and 3. The change from baseline in age-sex standardized height SDS after 12 months of treatment. Height was measured five times at each study visit on a wall-mounted calibrated Harpenden stadiometer. The average of all five values was used. Safety assessments included routine laboratory evaluations at each visit, baseline and Month 12 echocardiograms, electrocardiograms at each visit, vital signs measurements, and spine X-rays at Day 1 and Month 12. No formal power calculations were done for this proof of principle study. Sample size was determined based on logistical feasibility. Medication adherence was calculated using the number of returned empty vials divided by the number of days of prescribed therapy. Demographics and clinical characteristics were summarized with mean and standard deviation (SD), median and interquartile (IQR) for numerical variables, frequency and proportion for categorical variables. Primary and secondary clinical outcomes were summarized with mean (SD) for the 6-month observation period and the 12-month treatment period. Paired t-tests were carried out to compare the difference between the treatment and observation periods. The corresponding p-value and 95% confidence interval (CI) were reported. Box and whisker plots were used for both primary endpoints (annualized growth velocity and height SDS) and exploratory endpoints (CXM and cGMP) to visualize the trends for the change from baseline to each of the follow-up visits. Safety data (AEs) were summarized as count and percentage of patients as well as the number of total occurrences per each listed AE for the observation period and the treatment period, respectively. As exploratory analyses, the primary endpoints were stratified based on age, baseline growth velocity and baseline height SDS. The summaries of mean (SD) for each visit, mean differences between treatment and observation periods, and the corresponding p-value and 95% CI were all reported. Parent reported quality of life using the […] scale was also reported with a similar tabular format. Data were analyzed using SAS for Windows version 9.4 (SAS Institute Inc., Cary, NC). A two-sided test with a significance level of 0.05 was used for all hypothesis tests.

[2] = test system: neutral endopeptidase (NEP); conditions: conveyed by Pro-Gly addition on the N-terminus; protocol statement, no data shown; cited from earlier work
From the text: Third, Dr. Dauber (the PI) will p ...

Sequence: PGQEHPNARKYKGANKKGLSKGCFGLKLDRIGSMSGLGC (disulfide) [vosoritide, recombinant 39-amino-acid C-type natriuretic peptide analog expressed in E. coli, cyclic by an intramolecular disulfide bond]
- Abdominal pain: # of patients [1]: 5
- Abdominal pain: # of total occurrences [1]: 15
- Abdominal pain: % of patients [1]: 20.8%
- Any injection site reaction (overall): # of patients [1]: 20
- Any injection site reaction (overall): # of total occurrences [1]: 329
- Any injection site reaction (overall): % of patients [1]: 83.3%
- Assay for drug induced anti-platelet antibodies [1]: negative
- Cough: # of patients [1]: 12
- Cough: # of total occurrences [1]: 20
- Cough: % of patients [1]: 50.0%
- Diarrhea: # of patients [1]: 2
- Diarrhea: # of total occurrences [1]: 3
- Diarrhea: % of patients [1]: 8.3%
- Discontinuation due to a treatment related adverse event [1]: No participants discontinued treatment
- Dizziness: # of patients [1]: 3
- Dizziness: # of total occurrences [1]: 4
- Dizziness: % of patients [1]: 12.5%
- Ear infection: # of patients [1]: 2
- Ear infection: # of total occurrences [1]: 2
- Ear infection: % of patients [1]: 8.3%
- Epistaxis: # of patients [1]: 3
- Epistaxis: # of total occurrences [1]: 3
- Epistaxis: % of patients [1]: 12.5%
- Fever: # of patients [1]: 13
- Fever: # of total occurrences [1]: 29
- Fever: % of patients [1]: 54.2%
- Headache: # of patients [1]: 6
- Headache: # of total occurrences [1]: 17
- Headache: % of patients [1]: 25.0%
- Injection site bruising: # of patients [1]: 6
- Injection site bruising: # of total occurrences [1]: 20
- Injection site bruising: % of patients [1]: 25.0%
- Injection site erythema: # of patients [1]: 13
- Injection site erythema: # of total occurrences [1]: 113
- Injection site erythema: % of patients [1]: 54.2%
- Injection site pain: # of patients [1]: 7
- Injection site pain: # of total occurrences [1]: 61
- Injection site pain: % of patients [1]: 29.2%
- Injection site swelling: # of patients [1]: 13
- Injection site swelling: # of total occurrences [1]: 116
- Injection site swelling: % of patients [1]: 54.2%
- Injection site urticaria: # of patients [1]: 7
- Injection site urticaria: # of total occurrences [1]: 19
- Injection site urticaria: % of patients [1]: 29.2%
- Laceration: # of patients [1]: 3
- Laceration: # of total occurrences [1]: 3
- Laceration: % of patients [1]: 12.5%
- Nasopharyngitis: # of patients [1]: 2
- Nasopharyngitis: # of total occurrences [1]: 2
- Nasopharyngitis: % of patients [1]: 8.3%
- Other Grade 3 or higher adverse events [1]: no other Grade 3 or higher adverse events
- Rash maculo-papular: # of patients [1]: 2
- Rash maculo-papular: # of total occurrences [1]: 2
- Rash maculo-papular: % of patients [1]: 8.3%
- Rhinorrhea: # of patients [1]: 6
- Rhinorrhea: # of total occurrences [1]: 6
- Rhinorrhea: % of patients [1]: 25.0%
- Scoliosis: # of patients [1]: 3
- Scoliosis: # of total occurrences [1]: 3
- Scoliosis: % of patients [1]: 12.5%
- Severity and outcome of injection site reactions [1]: grade 1 or 2 and self-resolved
- Symptomatic hypotension [1]: no episodes of symptomatic hypotension
- Syncope [1]: One participant
- Upper respiratory tract infection: # of patients [1]: 2
- Upper respiratory tract infection: # of total occurrences [1]: 2
- Upper respiratory tract infection: % of patients [1]: 8.3%
- Vomiting: # of patients [1]: 11
- Vomiting: # of total occurrences [1]: 18
- Vomiting: % of patients [1]: 45.8%
- Degradation by neutral endopeptidase (NEP) [2]: resistance to neutral endopeptidase (NEP) degradation
